In patent US9932637B2, “Genetic polymorphisms associated with cardiovascular disorders and drug response, methods of detection and uses thereof” (CELERA CORPORATION, priority 2003, dated 2018):
Several values for one entry are separate records, joined by “and”; a condition that tells them apart may be missing. Equal entries are not always repeated.

Test system: patients with prior myocardial infarction (CARE study)
Test: CARE aligned analysis (prospective and case/control design, white males): association of genotypes with pravastatin efficacy (Tables 13, 15)
Assay type: in vivo, human
Settings: for Pravastatin vs placebo odds ratio, 1 rare allele / Pravastatin vs placebo odds ratio, 2 rare alleles / 2 rare alleles n/total (%), pravastatin patients / Pravastatin vs placebo odds ratio, 0 rare alleles: CARE, F MI/SD/NF MI; for Pravastatin Patients (%) / Pravastatin Patients n/total: F&NF MI, WM
Experimental: The data presented in Table 8 based on an association of genotypes with pravastatin efficacy of the CARE samples were further analyzed and presented in Table 13. The further analysis was performed to align the data obtained from the analysis of the CARE samples, which was a prospective study, to the analysis of the WOSCOP samples, which was a case/control study. Table 13 also presents an analysis of the association of genotypes with pravastatin efficacy in the WOSCOPs samples. Relative to the analysis performed on the data presented in Table 8, there are two significant differences to determine if the SNP influenced pravastatin efficacy. Data obtained from the CARE samples were separated by study design into two groups, those in the prospective study design group and those in the case/control study design group. The original care study contained 16 protocol defined cardiovascular disease defined endpoints and 150 other phenotypes. […] The control groups used to compare the data were also divided into two groups, the “all possible” control group and the “cleaner” control group. […] Because the participants in the WOSCOPs trial were all white males, only data obtained from white males in the CARE study were analysed. Data from the “all possible” and “cleaner” controls were compared to data obtained from the cases in the prospective study design while only data from “cleaner” controls were compared to cases in the case/control study design. The data from the case/control cohorts were analysed using conditional logistic regression (as opposed to logistic regression used for the original anaylsis).
The anaylsis was refined as described for both Tables 13 and 14.

[1] = IL9 hCV3275199, 0 Rare Alleles, CARE Case/Control, All Possible controls
[2] = IL9 hCV3275199, 0 Rare Alleles, CARE Case/Control, Cleaner controls
[3] = IL9 hCV3275199, 0 Rare Alleles, CARE Prospective, All Possible controls
[4] = IL9 hCV3275199, 0 Rare Alleles, CARE Prospective, Cleaner controls
[5] = IL9 hCV3275199, 1 Rare Allele, CARE Case/Control, All Possible controls
[6] = IL9 hCV3275199, 1 Rare Allele, CARE Case/Control, Cleaner controls
[7] = IL9 hCV3275199, 1 Rare Allele, CARE Prospective, All Possible controls
[8] = IL9 hCV3275199, 1 Rare Allele, CARE Prospective, Cleaner controls
[9] = ITGA4 hCV7618856, 0 Rare Alleles, CARE Case/Control, Cleaner controls
[10] = ITGA4 hCV7618856, 1 Rare Allele, CARE Case/Control, All Possible controls
[11] = ITGA4 hCV7618856, 1 Rare Allele, CARE Case/Control, Cleaner controls
[12] = ITGA4 hCV7618856, 1 Rare Allele, CARE Prospective, All Possible controls
[13] = KDR hCV16192174, 0 Rare Alleles, CARE Case/Control, All Possible controls
[14] = KDR hCV16192174, 0 Rare Alleles, CARE Case/Control, Cleaner controls
[15] = KDR hCV16192174, 0 Rare Alleles, CARE Prospective, All Possible controls
[16] = KDR hCV16192174, 0 Rare Alleles, CARE Prospective, Cleaner controls
[17] = KDR hCV16192174, 1 Rare Allele, CARE Case/Control, All Possible controls
[18] = KDR hCV16192174, 1 Rare Allele, CARE Case/Control, Cleaner controls
[19] = KDR hCV16192174, 1 Rare Allele, CARE Prospective, All Possible controls
[20] = KDR hCV16192174, 1 Rare Allele, CARE Prospective, Cleaner controls
[21] = KDR hCV22271999, 0 Rare Alleles, CARE Case/Control, All Possible controls
[22] = KDR hCV22271999, 0 Rare Alleles, CARE Case/Control, Cleaner controls
[23] = KDR hCV22271999, 0 Rare Alleles, CARE Prospective, All Possible controls
[24] = KDR hCV22271999, 0 Rare Alleles, CARE Prospective, Cleaner controls
[25] = KDR hCV22271999, 1 Rare Allele, CARE Case/Control, All Possible controls
[26] = KDR hCV22271999, 1 Rare Allele, CARE Case/Control, Cleaner controls
[27] = KDR hCV22271999, 1 Rare Allele, CARE Prospective, All Possible controls
[28] = KDR hCV22271999, 1 Rare Allele, CARE Prospective, Cleaner controls

CC[C@H](C)C(=O)O[C@H]1C[C@H](O)C=C2C=C[C@H](C)[C@H](CC[C@@H](O)C[C@@H](O)CC(=O)O)[C@H]21 [pravastatin]
Pravastatin vs placebo odds ratio, 1 rare allele (IL4R hCV2769554, Case/Control): 0.74 and 0.64
Pravastatin vs placebo odds ratio, 2 rare alleles (IL4R hCV2769554, Case/Control): 1.66 and 1.52
Pravastatin Patients (%) [1]: (12.4%)
Pravastatin Patients n/total [1]: 111/896
Pravastatin Patients (%) [2]: (17.5%)
Pravastatin Patients n/total [2]: 111/633
Pravastatin Patients (%) [3]: (12.2%)
Pravastatin Patients n/total [3]: 111/911
Pravastatin Patients (%) [4]: (17.2%)
Pravastatin Patients n/total [4]: 111/644
Pravastatin Patients (%) [5]: (5.3%)
Pravastatin Patients n/total [5]: 15/283
Pravastatin Patients (%) [6]: (8.2%)
Pravastatin Patients n/total [6]: 15/184
Pravastatin Patients (%) [7]: (5.2%)
Pravastatin Patients n/total [7]: 15/290
Pravastatin Patients (%) [8]: (8.0%)
Pravastatin Patients n/total [8]: 15/187
Pravastatin Patients (%) (ITGA4 hCV7618856, 0 Rare Alleles, CARE Case/Control, All Possible controls): (10.1%)
Pravastatin Patients (%) [9]: (14.7%)
Pravastatin Patients n/total [9]: 120/817
Pravastatin Patients (%) (ITGA4 hCV7618856, 0 Rare Alleles, CARE Prospective, All Possible controls): (10.0%)
Pravastatin Patients (%) [10]: (25.0%)
Pravastatin Patients n/total [10]: 5/20
Pravastatin Patients (%) [11]: (31.3%)
Pravastatin Patients n/total [11]: 5/16
Pravastatin Patients (%) [12]: (23.8%)
Pravastatin Patients n/total [12]: 5/21
2 rare alleles n/total (%), pravastatin patients (ITGAE hCV1243283, Case/Control): (8.0%)
Pravastatin vs placebo odds ratio, 0 rare alleles (ITGAE hCV1243283, Case/Control): 0.79
Pravastatin vs placebo odds ratio, 1 rare allele (ITGAE hCV1243283, Case/Control): 0.84
Pravastatin vs placebo odds ratio, 2 rare alleles (ITGAE hCV1243283, Case/Control): 0.24
Pravastatin Patients (%) [13]: (9.0%)
Pravastatin Patients n/total [13]: 87/971
Pravastatin Patients (%) [14]: (13.1%)
Pravastatin Patients n/total [14]: 87/666
Pravastatin Patients (%) [15]: (8.8%)
Pravastatin Patients n/total [15]: 87/985
Pravastatin Patients (%) [16]: (12.9%)
Pravastatin Patients n/total [16]: 87/675
Pravastatin Patients (%) [17]: (17.2%)
Pravastatin Patients n/total [17]: 39/227
Pravastatin Patients (%) [18]: (23.9%)
Pravastatin Patients n/total [18]: 39/163
Pravastatin Patients (%) [19]: (16.6%)
Pravastatin Patients n/total [19]: 39/235
Pravastatin Patients (%) [20]: (23.2%)
Pravastatin Patients n/total [20]: 39/168
Pravastatin vs placebo odds ratio, 0 rare alleles (KDR hCV16192174, Case/Control): 0.66 and 0.58
Pravastatin vs placebo odds ratio, 1 rare allele (KDR hCV16192174, Case/Control): 1.68
Pravastatin vs placebo odds ratio, 2 rare alleles (KDR hCV16192174, Case/Control): 0.41 and 0.35
2 rare alleles n/total (%), pravastatin patients (KDR hCV16192174, Prospective): (10.0%)
Pravastatin vs placebo odds ratio, 0 rare alleles (KDR hCV16192174, Prospective): 0.61
Pravastatin vs placebo odds ratio, 1 rare allele (KDR hCV16192174, Prospective): 1.41
Pravastatin vs placebo odds ratio, 2 rare alleles (KDR hCV16192174, Prospective): 0.30
Pravastatin Patients (%) [21]: (9.0%)
Pravastatin Patients n/total [21]: 87/969
Pravastatin Patients (%) [22]: (13.1%)
Pravastatin Patients n/total [22]: 87/665
Pravastatin Patients (%) [23]: (8.9%)
Pravastatin Patients n/total [23]: 87/983
Pravastatin Patients (%) [24]: (12.9%)
Pravastatin Patients n/total [24]: 87/674
Pravastatin Patients (%) [25]: (17.3%)
Pravastatin Patients n/total [25]: 39/226
Pravastatin Patients (%) [26]: (24.1%)
Pravastatin Patients n/total [26]: 39/162
Pravastatin Patients (%) [27]: (16.7%)
Pravastatin Patients n/total [27]: 39/234
Pravastatin Patients (%) [28]: (23.4%)
Pravastatin Patients n/total [28]: 39/167
